How the values were obtained:
[1] = system: ACCase-inhibitor tolerant rice plants; assay: Field treatment of ACCase-inhibitor tolerant rice plants; type: in vivo; conditions: 600 g/ha treatment; data not shown
rice plants = assay: Greenhouse spray test of M0 regenerants, rated for herbicide injury; type: in vivo; conditions: 400-1600 g ai/ha with 0.1% methylated seed oil, subset 800 g ai/ha, rated 1 and 2 weeks after treatment
Method: Selected mutants and escapes were transferred to small pots. Wild-type cultivars and 3 biovars of red rice were germinated from seed to serve as controls.
After ca. 3 weeks post-transplant, M0 regenerants were sprayed using a track sprayer with 400-1600 g ai/ha cycloxydim (BAS 517H) supplemented with 0.1% methylated seed oil. After the plants had adapted to greenhouse conditions, a subset were sprayed with 800 g ai/ha cycloxydim. Once sprayed, plants were kept on drought conditions for 24 hours before being watered and fertilized again. Sprayed plants were photographed and rated for herbicide injury at 1 (FIG. 3) and 2 weeks after treatment (FIG. 4). […] FIGS. 5-15 provide nucleic acid and/or amino acid sequences of acetyl-Coenzyme A carboxylase enzymes from various plants. FIG. 17 provides a graph showing results for mutant rice versus various ACCase inhibitors.

[2] = system: rice calli derived from Oryza sativa subsp. indica; assay: Kill curves of rice calli in tissue culture (toxic levels of ACCase inhibitors); type: cell-based; conditions: determined by kill curves and observations of continued culture; rice calli on R001M
Method: FIG. 1 is a bar graph showing relative growth rice calli derived from Oryza sativa subsp. indica grown in the presence of difference selection levels of herbicide.
Once tissue culture conditions were determined, further establishment of selection conditions were established through the analysis of tissue survival in kill curves with cycloxydim, tepraloxydim, sethoxydim (FIG. 1) or haloxyfop (not shown). Careful consideration of accumulation of the herbicide in the tissue, as well as its persistence and stability in the cells and the culture media was performed. Through these experiments, a sub-lethal dose has been established for the initial selection of mutated material.
After the establishment of the starting dose of sethoxydim, cycloxydim, tepraloxydim, and haloxyfop in selection media, the tissues were selected in a step-wise fashion by increasing the concentration of the ACCase inhibitor with each transfer until cells are recovered that grew vigorously in the presence of toxic doses (see FIG. 2). […] Over 26,000 calli were subjected to selection for 4-5 subcultures until the selective pressure was above toxic levels as determined by kill curves and observations of continued culture. Toxic levels were determined to be 50 μM sethoxydim, 20 μM cycloxydim, 2.5 μM tepraloxydim (FIG. 1) and 10 μM haloxyfop (not shown).

| SMILES | herbicide tolerance phenotype in the field [1] | herbicide injury (rice plants; control plants and tissue culture escapes) | herbicide injury (rice plants; plants containing the I1,781(Am)L heterozygous mutation) | Toxic levels [2] |
| --- | --- | --- | --- | --- |
| CCCC(=NOCC)C1=C(O)CC(C2CCCSC2)CC1=O (centres unmarked) [cycloxydim] | Herbicide tolerance phenotypes as described herein have also been exhibited | heavily damaged | No injury |  |
| CCC/C(=N\OCC)C1=C(O)CC(CC(C)SCC)CC1=O (centres unmarked) [sethoxydim] |  |  |  | 50 µM |
| CC/C(=N\OC/C=C/Cl)C1=C(O)CC(C2CCOCC2)CC1=O (centres unmarked) [tepraloxydim] |  |  |  | 2.5 µM |

From patent publication US20120284853A1, “HERBICIDE-TOLERANT PLANTS” (BASF AGROCHEMICAL PRODUCTS, B.V., priority 2009, published 2012)
